In ChEMBL document CHEMBL1921767, “Facile synthesis of new 4-aza-podophyllotoxin analogs via microwave-assisted multi-component reactions and evaluation of their cytotoxic activity” (Bioorg Med Chem Lett, 2011):
Values after ≈ are worked out from the molar mass of the structure shown.

Experiments:
Format in all cases: functional, cell-based
MCF7 = assay: Cytotoxicity against human MCF7 cells after 24 hrs by MTT assay; settings: MCF7, 24 h
M14 = assay: Cytotoxicity against human M14 cells after 24 hrs by MTT assay; settings: M14, 24 h
[1] = Cytotoxicity against human SW1116 cells after 24 hrs by MTT assay; settings: SW 1116, 24 h

## Cc1nc2c3c(ccc2s1)NC1=C(C(=O)OC1)C3c1ccc([N+](=O)[O-])cc1 (racemic)
MCF7
  IC50: > 1000 µg/mL
M14
  IC50: > 1000 µg/mL
[1]
  IC50: > 1000 µg/mL

## COc1ccc(C2C3=C(COC3=O)Nc3ccc4sc(C)nc4c32)cc1 (racemic)
M14
  IC50: 508 µg/mL (≈ 1390 µM)
[1]
  IC50: > 1000 µg/mL

## Cc1nc2c3c(ccc2s1)NC1=C(C(=O)OC1)C3c1ccc(Cl)cc1Cl (racemic)
MCF7
  IC50: 539 µg/mL (≈ 1340 µM)
M14
  IC50: > 1000 µg/mL

## Cc1nc2c3c(ccc2s1)NC1=C(C(=O)OC1)C3c1ccc(O)c([N+](=O)[O-])c1 (racemic)
MCF7
  IC50: 56 µg/mL (≈ 142 µM)
M14
  IC50: 33.9 µg/mL (≈ 85.7 µM)
[1]
  IC50: 69.4 µg/mL (≈ 176 µM)

## Cc1ccc(C2C3=C(COC3=O)Nc3ccc4sc(C)nc4c32)cc1 (racemic)
MCF7
  IC50: 25.7 µg/mL (≈ 73.7 µM)
M14
  IC50: 225 µg/mL (≈ 645 µM)
[1]
  IC50: 122 µg/mL (≈ 350 µM)

## Cc1nc2c3c(ccc2s1)NC1=C(C(=O)OC1)C3c1ccccc1 (racemic)
MCF7
  IC50: > 1000 µg/mL
M14
  IC50: > 1000 µg/mL
[1]
  IC50: 156 µg/mL (≈ 466 µM)

## COc1cc(C2C3=C(COC3=O)Nc3ccc4sc(C)nc4c32)cc(OC)c1OC (racemic)
MCF7
  IC50: 686 µg/mL (≈ 1620 µM)
M14
  IC50: > 1000 µg/mL
[1]
  IC50: 383 µg/mL (≈ 903 µM)

## Cc1nc2c3c(ccc2s1)NC1=C(C(=O)OC1)C3c1ccc(Br)cc1 (racemic)
MCF7
  IC50: 748 µg/mL (≈ 1810 µM)
M14
  IC50: 167 µg/mL (≈ 405 µM)
[1]
  IC50: 257 µg/mL (≈ 623 µM)

## Cc1nc2c3c(ccc2s1)NC1=C(C(=O)OC1)C3c1cccc([N+](=O)[O-])c1 (racemic)
MCF7
  IC50: 151 µg/mL (≈ 399 µM)
M14
  IC50: 77.9 µg/mL (≈ 205 µM)
[1]
  IC50: 26 µg/mL (≈ 68.5 µM)
